Measurements taken from patent US20140073651A1, “BENZAMIDE DERIVATIVES AS P2X7 RECEPTOR ANTAGONISTS” (Actelion Pharmaceuticals Ltd., priority 2011, published 2014).

Biological target: T1, human recombinant P2X7 receptor (Homo sapiens, UniProt Q99572)
T1 construct: expressed in transfected cells
T1 sequence (Q99572 1-595): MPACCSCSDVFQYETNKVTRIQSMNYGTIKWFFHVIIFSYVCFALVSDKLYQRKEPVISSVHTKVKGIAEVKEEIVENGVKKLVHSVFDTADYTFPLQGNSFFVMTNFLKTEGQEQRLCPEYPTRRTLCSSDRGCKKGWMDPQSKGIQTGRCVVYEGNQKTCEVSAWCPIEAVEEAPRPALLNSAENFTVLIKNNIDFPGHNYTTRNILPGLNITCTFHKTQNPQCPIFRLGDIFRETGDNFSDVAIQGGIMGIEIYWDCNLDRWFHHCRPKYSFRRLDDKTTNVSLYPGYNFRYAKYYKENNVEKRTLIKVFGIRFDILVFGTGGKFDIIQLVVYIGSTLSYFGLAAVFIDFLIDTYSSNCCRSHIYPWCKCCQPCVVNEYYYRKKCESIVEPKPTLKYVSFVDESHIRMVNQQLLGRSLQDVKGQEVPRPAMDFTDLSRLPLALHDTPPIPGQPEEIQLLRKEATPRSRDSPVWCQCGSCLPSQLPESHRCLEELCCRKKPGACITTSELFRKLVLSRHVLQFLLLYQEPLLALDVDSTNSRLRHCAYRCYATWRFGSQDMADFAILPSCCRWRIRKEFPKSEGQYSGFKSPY
Assay: YO-PRO assay (YO-PRO-1 uptake) in HEK cells stably expressing P2X7
Type: cell-based
Settings: HEK-293 cells expressing human recombinant P2X7 receptor; ATP 250 μM, 90 minutes; YO-PRO-1 fluorescence (FLIPR tetra); read-out: IC50 (antagonistic activity with respect to the P2X7 receptor)
Protocol: Cell line generation was performed in general according to established molecular cloning protocols. Specifically, RNA was extracted from human whole blood using the Qiagen RNeasy kit (Qiagen, CH) according to the manufacturer's instructions. Subsequently cDNA was made (Superscript II, Invitrogen AG, CH) and the human P2X7 gene (genbank ref. BC011913) was amplified with the following primers: [NT] and [NT] The amplified sequence was subsequently ligated into a pcDNA3.1 (+) NotI, NheI digested plasmid. […] Following a 24 h exposure to DNA, cells were trypsinized and re-seeded at low density in the presence of 250 μg Geneticin. Geneticin resistant cells were then selected during two consecutive rounds of cloning by serial limiting dilution with visual inspection. Individual clones were screened for P2X7 expression by applying ATP and recording the resultant uptake of YO-[…]. Specific cell clones were chosen based on RNA and protein expression. HEK cells stably expressing P2X7 were used to screen drugs using the YO-[…] assay. Cells were grown to confluency in adherent culture at 37° C. in a humidified 5% CO2 incubator (split 1/5 every 3-4 days with DMEM, 10% FCS, 1% Penicillin/Streptomycin, 250 μg/ml Geneticin). Adherent cells were detached by incubation with Trypsine (1 ml per 165 cm^2 dish) for 2 minutes, then washed off with 10 ml PBS (without Mg^2+ and Ca^2+), and resuspended in DMEM, 10% FCS, 1% Penicillin/Streptomycin, no Geneticin. 10'000 cells per well (48 hours before the assay) or 25'000 cells per well (Vi-cell XR (Beckman Coulter) (24 hours before the assay) in 50 μl full medium were seeded on 384-well black-wall, clear bottom plates, that were coated before with 10 μl per well Poly-L-Lysine, incubated for 30-60 minutes at 37° C. and washed once with PBS. Medium was removed from cells and 50 μl of assay buffer containing 0.5 μM YO-[…] was added into the wells. Solutions of antagonist compounds were prepared by serial dilutions of a 10 mM DMSO solution of the antagonist into PBS using a BioMek (Beckman Coulter). Each concentration was performed in duplicate. […] During this time period, four time points were taken. Each time point comprised the average of several measurements made within a few seconds. […] The FLIPR tetra was equipped with Molecular Devices Screen Works system control software to define and run experimental protocols. […] For IC50 measurements the maximum intensity is plotted against the concentration of compound to determine IC50 values.

Row | SMILES | IC50 [nM]
1 | COC1(CNC(=O)c2cc(N(C)c3ccnc(Cl)n3)ccc2Cl)CCCCC1 [Example 51, 2-Chloro-5-[(2-chloro-pyrimidin-4-yl)-methyl-amino]-N-(1-methoxy-cyclohexylmethyl)-benzamide] | 460
2 | CN(c1ccc(Cl)c(C(=O)NCC2(C(N)=O)CCCCC2)c1)c1ccnc(Cl)n1 [Example 53, N-(1-Carbamoyl-cyclohexylmethyl)-2-chloro-5-[(2-chloro-pyrimidin-4-yl)-methyl-amino]-benzamide] | 576
3 | CN(c1ccc(Cl)c(C(=O)NCC2(CO)CCCCC2)c1)c1ccnc(Cl)n1 [Example 55, 2-Chloro-5-[(2-chloro-pyrimidin-4-yl)-methyl-amino]-N-(1-hydroxymethyl-cyclohexylmethyl)-benzamide] | 482
4 | CSc1nccc(Nc2ccc(Cl)c(C(=O)N[C@H](C)C3CCCCC3)c2)n1 [Example 59, 2-Chloro-N—((R)-1-cyclohexyl-ethyl)-5-(2-methylsulfanyl-pyrimidin-4-ylamino)-benzamide] | 1810
5 | CSc1nccc(Nc2ccc(Cl)c(C(=O)N[C@H](CO)C3CCCCC3)c2)n1 [Example 60, 2-Chloro-N—((S)-1-cyclohexyl-2-hydroxy-ethyl)-5-(2-methylsulfanyl-pyrimidin-4-ylamino)-benzamide] | 1030
6 | CSc1nccc(Nc2ccc(Cl)c(C(=O)NCC3(O)CCCCCC3)c2)n1 [Example 61, 2-Chloro-N-(1-hydroxy-cycloheptylmethyl)-5-(2-methylsulfanyl-pyrimidin-4-ylamino)-benzamide] | 681
7 | CN(c1ccc(Cl)c(C(=O)NCC2(O)CCCCC2)c1)c1cc(Cl)nc(Cl)n1 [Example 62, 2-Chloro-5-[(2,6-dichloro-pyrimidin-4-yl)-methyl-amino]-N-(1-hydroxy-cyclohexylmethyl)-benzamide] | 416
8 | CN(c1ccc(Cl)c(C(=O)NCC2(O)CCCCC2)c1)c1cc(Cl)[nH]c(=O)n1 [Example 64, 2-Chloro-5-[(6-chloro-2-oxo-1,2-dihydro-pyrimidin-4-yl)-methyl-amino]-N-(1-hydroxy-cyclohexylmethyl)-benzamide] | 902
9 | COc1cc(N(C)c2ccc(Cl)c(C(=O)NCC3(O)CCCCC3)c2)ncn1 [Example 67, 2-Chloro-N-(1-hydroxy-cyclohexylmethyl)-5-[(6-methoxy-pyrimidin-4-yl)-methyl-amino]-benzamide] | 337
10 | O=C(NCC1(O)CCCCC1)c1cc(Nc2ncccn2)ccc1Cl [Example 69, 2-Chloro-N-(1-hydroxy-cyclohexylmethyl)-5-(pyrimidin-2-ylamino)-benzamide] | 326
11 | CN(c1ccc(Cl)c(C(=O)NCC2(O)CCCCC2)c1)c1ncccn1 [Example 70, 2-Chloro-N-(1-hydroxy-cyclohexylmethyl)-5-(methyl-pyrimidin-2-yl-amino)-benzamide] | 373
12 | COCCN(c1ccc(Cl)c(C(=O)NCC2(O)CCCCC2)c1)c1ncccn1 [Example 71, 2-Chloro-N-(1-hydroxy-cyclohexylmethyl)-5-[(2-methoxy-ethyl)-pyrimidin-2-yl-amino]-benzamide] | 2000
13 | CSc1ccnc(Nc2ccc(Cl)c(C(=O)NCC3(O)CCCCC3)c2)n1 [Example 72, 2-Chloro-N-(1-hydroxy-cyclohexylmethyl)-5-(4-methylsulfanyl-pyrimidin-2-ylamino)-benzamide] | 1460
14 | CSc1ccnc(N(C)c2ccc(Cl)c(C(=O)NCC3(O)CCCCC3)c2)n1 [Example 73, 2-Chloro-N-(1-hydroxy-cyclohexylmethyl)-5-[methyl-(4-methylsulfanyl-pyrimidin-2-yl)-amino]-benzamide] | 322
15 | CN(c1ccc(Cl)c(C(=O)NCC2(O)CCCCC2)c1)c1nccc(=O)[nH]1 [Example 75, 2-Chloro-N-(1-hydroxy-cyclohexylmethyl)-5-[methyl-(6-oxo-1,6-dihydro-pyrimidin-2-yl)-amino]-benzamide] | 1020
16 | O=C(NCC1(O)CCCCC1)c1cc(Nc2cncnc2)ccc1Cl [Example 76, 2-Chloro-N-(1-hydroxy-cyclohexylmethyl)-5-(pyrimidin-5-ylamino)-benzamide] | 418
17 | COCCN(c1cncnc1)c1ccc(Cl)c(C(=O)NCC2(O)CCCCC2)c1 [Example 77, 2-Chloro-N-(1-hydroxy-cyclohexylmethyl)-5-[(2-methoxy-ethyl)-pyrimidin-5-yl-amino]-benzamide] | 1460

Now those with a lower IC50, led by results:

Row | IC50 [nM] | SMILES
18 | 258 | CN(c1ccc(Cl)c(C(=O)NCC2(O)CCCC2)c1)c1ccnc(=O)[nH]1 [Example 50, 2-Chloro-N-(1-hydroxy-cyclopentylmethyl)-5-[methyl-(2-oxo-2,3-dihydro-pyrimidin-4-yl)-amino]-benzamide]
19 | 170 | COC1(CNC(=O)c2cc(N(C)c3ccnc(=O)[nH]3)ccc2Cl)CCCCC1 [Example 52, 2-Chloro-N-(1-methoxy-cyclohexylmethyl)-5-[methyl-(2-oxo-2,3-dihydro-pyrimidin-4-yl)-amino]-benzamide]
20 | 231 | CN(c1ccc(Cl)c(C(=O)NCC2(C(N)=O)CCCCC2)c1)c1ccnc(=O)[nH]1 [Example 54, N-(1-Carbamoyl-cyclohexylmethyl)-2-chloro-5-[methyl-(2-oxo-2,3-dihydro-pyrimidin-4-yl)-amino]-benzamide]
21 | 74 | CN(c1ccc(Cl)c(C(=O)NCC2(CO)CCCCC2)c1)c1ccnc(=O)[nH]1 [Example 56, 2-Chloro-N-(1-hydroxymethyl-cyclohexylmethyl)-5-[methyl-(2-oxo-2,3-dihydro-pyrimidin-4-yl)-amino]-benzamide]
22 | 214 | CN(c1ccc(Cl)c(C(=O)NCC2(O)CCC(F)(F)CC2)c1)c1ccnc(Cl)n1 [Example 57, 2-Chloro-5-[(2-chloro-pyrimidin-4-yl)-methyl-amino]-N-(4,4-difluoro-1-hydroxy-cyclohexylmethyl)-benzamide]
23 | 51 | CN(c1ccc(Cl)c(C(=O)NCC2(O)CCC(F)(F)CC2)c1)c1ccnc(=O)[nH]1 [Example 58, 2-Chloro-N-(4,4-difluoro-1-hydroxy-cyclohexylmethyl)-5-[methyl-(2-oxo-2,3-dihydro-pyrimidin-4-yl)-amino]-benzamide]
24 | 307 | COc1nc(Cl)cc(N(C)c2ccc(Cl)c(C(=O)NCC3(O)CCCCC3)c2)n1 [Example 63, 2-Chloro-5-[(6-chloro-2-methoxy-pyrimidin-4-yl)-methyl-amino]-N-(1-hydroxy-cyclohexylmethyl)-benzamide]
25 | 205 | CSc1cc(N(C)c2ccc(Cl)c(C(=O)NCC3(O)CCCCC3)c2)ncn1 [Example 65, 2-Chloro-N-(1-hydroxy-cyclohexylmethyl)-5-[methyl-(6-methylsulfanyl-pyrimidin-4-yl)-amino]-benzamide]
26 | 158 | CN(c1ccc(Cl)c(C(=O)NCC2(O)CCCCC2)c1)c1cc(S(C)(=O)=O)ncn1 [Example 66, 2-Chloro-N-(1-hydroxy-cyclohexylmethyl)-5-[(6-methanesulfonyl-pyrimidin-4-yl)-methyl-amino]-benzamide]
27 | 288 | CN(c1ccc(Cl)c(C(=O)NCC2(O)CCCCC2)c1)c1cc(=O)[nH]cn1 [Example 68, 2-Chloro-N-(1-hydroxy-cyclohexylmethyl)-5-[methyl-(6-oxo-1,6-dihydro-pyrimidin-4-yl)-amino]-benzamide]
28 | 280 | COc1ccnc(N(C)c2ccc(Cl)c(C(=O)NCC3(O)CCCCC3)c2)n1 [Example 74, 2-Chloro-N-(1-hydroxy-cyclohexylmethyl)-5-[(4-methoxy-pyrimidin-2-yl)-methyl-amino]-benzamide]
